Results taken from patent US11866408B2, “N,N-dimethyltryptamine and related psychedelics and uses thereof” (Terran Biosciences Inc., priority 2021, dated 2024).

How the values were obtained:
[1] = Single oral dose pharmacokinetics study in rats (10 mg/kg PO; plasma levels of prodrug and of metabolite DMT or 5-MeO-DMT by LC-MS/MS); conditions: for AUC(0-t) / Cmax: male, Sprague-Dawley, rat, po, 10 mg/kg
[2] = Single intravenous dose pharmacokinetics study in rats (1 mg/kg IV; plasma levels of prodrug and of DMT or 5-MeO-DMT by LC-MS/MS); conditions: for AUC(0-t) / AUC(0-inf) / clearance / MRT / Vd / half-life: male, Sprague-Dawley, rat, iv, 1 mg/kg; for clearance: CL/CL_F (mL/min/kg); for MRT: MRT (h); for Vd: Vdss (L/kg); for half-life: t1/2 (h)
[3] = PO 10 mg/kg Plasma (t= 0 to Ihr)
[4] = PO 10 mg/kg, plasma, analyte = dosed compound
[5] = plasma, AUC0-t (nM.hr), PO 10 mg/kg, analyte = dosed compound
[6] = plasma, AUC0-t (ng.hr/mL), PO 10 mg/kg, analyte = dosed compound
[7] = plasma, C0/Cmax (nM), PO 10 mg/kg, analyte = dosed compound
[8] = plasma, C0/Cmax (ng/mL), PO 10 mg/kg, analyte = dosed compound, mean/median
[9] = IV 1 mg/kg Plasma (t= 0 to Ihr)
[10] = IV 1 mg/kg, plasma, analyte = dosed compound
[11] = plasma, AUC0-t (nM.hr), IV 1 mg/kg, analyte = dosed compound
[12] = plasma, AUC0-t (ng.hr/mL), IV 1 mg/kg, analyte = dosed compound
[13] = plasma, AUCinf (nM.hr), IV 1 mg/kg, analyte = dosed compound
[14] = plasma, AUCinf (ng.hr/mL), IV 1 mg/kg, analyte = dosed compound
[15] = plasma, IV 1 mg/kg Plasma (t= 0 to Ihr)
[16] = plasma, IV 1 mg/kg, analyte = dosed compound

SMILES: CN(C)CCc1c[nH]c2ccccc12 [DMT, N,N-dimethyltryptamine]
- Clast [1, 3]: 3.18 ng/mL
- tlast [1, 3]: 1.02 h
- Bioavailability (%) Using AUC0-t ([1]; PO 10 mg/kg Plasma (t= 0 to Ihr) vs IV 1 mg/kg): 0.212%
- AUC % Extrapolation to infinity [1, 4]: 42.6%
- CL/CL_F [1, 4]: 1639 mL/min/kg
- Clast [1, 4]: 1.52 ng/mL
- tlast [1, 4]: 24.0 h
- AUC(0-t) ([1]; plasma, AUC0-t (nM.hr), PO 10 mg/kg Plasma (t= 0 to Ihr)): 0.0239 µM·h
- AUC(0-t) [1, 5]: 0.314 µM·h
- AUC(0-t) ([1]; plasma, AUC0-t (ng.hr/mL), PO 10 mg/kg Plasma (t= 0 to Ihr)): 4.51 ng·h/mL
- AUC(0-t) [1, 6]: 59.1 ng·h/mL
- Cmax ([1]; plasma, C0/Cmax (nM), PO 10 mg/kg Plasma (t= 0 to Ihr)): 47.1 nM
- Cmax [1, 7]: 69.4 nM
- Cmax ([1]; plasma, C0/Cmax (ng/mL), PO 10 mg/kg Plasma (t= 0 to Ihr)): 8.87 ng/mL
- Cmax [1, 8]: 13.1 ng/mL
- AUC % Back Extrapolation to C0 [2, 9]: 67.2%
- AUC % Extrapolation to infinity [2, 9]: 0.502%
- Clast [2, 9]: 5.51 ng/mL
- tlast [2, 9]: 1.00 h
- AUC % Back Extrapolation to C0 [2, 10]: 66.4%
- AUC % Extrapolation to infinity [2, 10]: 0.690%
- Clast [2, 10]: 7.12 ng/mL
- tlast [2, 10]: 1.50 h
- AUC(0-t) ([2]; plasma, AUC0-t (nM.hr), IV 1 mg/kg Plasma (t= 0 to Ihr)): 1.13 µM·h
- AUC(0-t) [2, 11]: 1.14 µM·h
- AUC(0-t) ([2]; plasma, AUC0-t (ng.hr/mL), IV 1 mg/kg Plasma (t= 0 to Ihr)): 213 ng·h/mL
- AUC(0-t) [2, 12]: 214 ng·h/mL
- AUC(0-inf) ([2]; plasma, AUCinf (nM.hr), IV 1 mg/kg Plasma (t= 0 to Ihr)): 1.14 µM·h
- AUC(0-inf) [2, 13]: 1.15 µM·h
- AUC(0-inf) ([2]; plasma, AUCinf (ng.hr/mL), IV 1 mg/kg Plasma (t= 0 to Ihr)): 214 ng·h/mL
- AUC(0-inf) [2, 14]: 216 ng·h/mL
- clearance [2, 15]: 87.1 mL/min/kg
- clearance [2, 16]: 85.8 mL/min/kg
- MRT [2, 15]: 7.92 min
- MRT [2, 16]: 9.12 min
- Vd [2, 15]: 0.645 L/kg
- Vd [2, 16]: 0.774 L/kg
- half-life [2, 15]: 8.4 min
- half-life [2, 16]: 8.76 min

SMILES: COc1ccc2c(c1)c(CCN(C)C)cn2P(=O)(OC(C)C)OC(C)C [Diisopropylphosphonate 5-MeO-DMT Prodrug, 2-(1-diisopropoxyphosphoryl-5-methoxy-indol-3-yl)-N,N-dimethyl-ethanamine]
- Bioavailability (%) Using AUCinf ([1]; PO 10 mg/kg vs IV 1 mg/kg, plasma, analyte = dosed compound): 33.8%
- AUC % Extrapolation to infinity [1, 4]: 7.77%
- CL/CL_F [1, 4]: 450 mL/min/kg
- Clast [1, 4]: 2.84 ng/mL
- tlast [1, 4]: 24.1 h
- AUC(0-t) [1, 5]: 0.921 µM·h
- AUC(0-t) [1, 6]: 352 ng·h/mL
- Cmax [1, 7]: 210 nM
- Cmax [1, 8]: 80.4 ng/mL
- AUC % Back Extrapolation to C0 [2, 10]: 7.68%
- AUC % Extrapolation to infinity [2, 10]: 7.01%
- Clast [2, 10]: 5.32 ng/mL
- tlast [2, 10]: 4.00 h
- AUC(0-t) [2, 11]: 0.273 µM·h
- AUC(0-t) [2, 12]: 104 ng·h/mL
- AUC(0-inf) [2, 13]: 0.295 µM·h
- AUC(0-inf) [2, 14]: 113 ng·h/mL
- clearance [2, 16]: 150 mL/min/kg
- MRT [2, 16]: 83.4 min
- Vd [2, 16]: 12.2 L/kg
- half-life [2, 16]: 60.6 min

SMILES: CC(C)OP(=O)(OC(C)C)n1cc(CCN(C)C)c2ccccc21 [Diisopropylphosphonate DMT Prodrug, 2-(1-diisopropoxyphosphorylindol-3-yl)-N,N-dimethyl-ethanamine]
- Bioavailability (%) Using AUC0-t ([1]; PO 10 mg/kg Plasma [Tlast = 4 h] vs IV 1 mg/kg): 16.1%
- tlast ([1]; PO 10 mg/kg Plasma [Tlast = 4 h], analyte = dosed prodrug): 4.00 h
- Clast [1, 4]: 28.2 ng/mL
- tlast [1, 4]: 7.00 h
- AUC(0-t) ([1]; plasma, AUC0-t (nM.hr), PO 10 mg/kg Plasma [Tlast = 4 h], analyte = dosed prodrug): 1.39 µM·h
- AUC(0-t) [1, 5]: 1.83 µM·h
- AUC(0-t) ([1]; plasma, AUC0-t (ng.hr/mL), PO 10 mg/kg Plasma [Tlast = 4 h], analyte = dosed prodrug): 489 ng·h/mL
- AUC(0-t) [1, 6]: 644 ng·h/mL
- Cmax ([1]; plasma, C0/Cmax (nM), PO 10 mg/kg Plasma [Tlast = 4 h], analyte = dosed prodrug): 554 nM
- Cmax [1, 7]: 554 nM
- Cmax ([1]; plasma, C0/Cmax (ng/mL), PO 10 mg/kg Plasma [Tlast = 4 h], analyte = dosed prodrug): 195 ng/mL
- Cmax [1, 8]: 195 ng/mL
- AUC % Back Extrapolation to C0 [2, 10]: 36.7%
- AUC % Extrapolation to infinity [2, 10]: 3.21%
- Clast [2, 10]: 5.22 ng/mL
- tlast [2, 10]: 4.00 h
- AUC(0-t) [2, 11]: 0.862 µM·h
- AUC(0-t) [2, 12]: 304 ng·h/mL
- AUC(0-inf) [2, 13]: 0.881 µM·h
- AUC(0-inf) [2, 14]: 311 ng·h/mL
- clearance [2, 16]: 70.2 mL/min/kg
- MRT [2, 16]: 52.1 min
- Vd [2, 16]: 4.21 L/kg
- half-life [2, 16]: 51.9 min
